Patent publication US6552014B2, “Methods of inhibiting platelet activation with selective serotonin reuptake inhibitors” (HeartDrug Research, L.L.C., priority 1999, dated 2003)

Legend:
Assay type in all cases: cell-based, human
CD9 = assay: Flow cytometry of platelet antigen expression, platelet rich plasma; details: PRP; healthy volunteers; desmethylsertraline 64.2 ng/ml
GP IIIa = assay: as above; details: PRP, desmethylsertraline 64.2 ng/ml
P-selectin [1] = assay: Whole blood flow cytometry; details: for P-Selectin (% +), % of cell positivity: Whole Blood
Excerpt: For ex vivo assessment of the SSRIs effect on a PAM, a level of a PAM can be assessed by flow cytometry by first obtaining a sample that comprises platelets and then contacting the sample with a platelet activation agonist, such as phorbol myristate acetate (PMA), ADP (adenosine diphosphate), thrombin, collagen, and/or TRAP (thrombin receptor activating peptide), under conditions suitable for activation of platelets in the sample. The sample is in contact with the agonist preferably for a period of time effective to maximally activate the platelets. […] Then one contacts or stains the samples with a composition that comprises an anti-PAM antibody e.g., having a fluorescent label, preferably in an amount in excess of that required to bind the PAM expressed on the platelets, under conditions suitable for the formation of labeled complexes between the anti-PAM antibody and activated platelets. Then the formation of the complex in the sample is determined (detected or measured).
Four cc of blood was collected in a tube, containing 2 cc of acid-citrate-dextrose (ACD) (7.3 g citric acid, 22.0 g sodium citrate×2H2O and 24.5 glucose in a total amount of 1000 mL distilled water) and mixed well. The buffer, TBS (10 mM Tris, 0.15 M NaCl, pH 7.4) and the following fluorescein isothiocyanate (FITC) conjugated monoclonal antibodies (PharMingen, San Diego, Calif. USA, and DAKO, Calif., USA) were removed from a refrigerator and allowed to warm at room temperature (RT): CD41 (IIb/IIIa), CD31 (PECAM-1), CD62p (P-selectin), CD51/61 (Vitronectin receptor). Six amber tubes (1.25 ml) were obtained and marked. One Eppendorf tube (1.5 ml) was labeled with “Dill WB”, Patient ID #, Initial and Date. The amber tubes and Eppendorf tube were placed in the rack. […] of TBS buffer was pipetted to the labeled Eppendorf tube. The patient's whole blood tube was inverted gently twice to mix. 50 μl of whole blood was pipetted to the “Dill WB” labeled Eppendorf tube. The Eppendorf tube was capped and the diluted whole blood was mixed by inverting the Eppendorf tube gently two times 50 μl of diluted whole blood was pipetted to each amber tube. 5 μl of appropriate antibody was pipetted to the bottom of the corresponding amber tube. The tubes were covered with aluminum foil and incubated at 4° C. for 30 minutes. After incubation, 400 μl of 2% buffered paraformaldehyde was added. To prepare 2% Paraformaldehyde:Dilute 1 part 10% paraformaldehyde with 4 parts TBS. This solution was stored at 4° C. for up to one week. The amber tubes were closed with a lid tightly and stored in a refrigerator at 4° C. until the flow cytometric analysis. The samples are analyzed on a Becton Dickinson FACScan flow cytometer. The instrument is set up to measure forward light scatter (FSC), and FITC fluorescence. All parameters are collected using four decade logarithmic amplification.
The data in table 1 was obtained using the methods described herein, and in particular, in Examples 1 and 2. The levels of various PAMs were assess from samples of human volunteers. […] Baseline levels of the PAMs were also obtained (without exposure to sertraline or NDMS).

P-selectin [2] = assay: Flow cytometry of platelet antigen expression, platelet rich plasma; details: PRP
Excerpt: For ex vivo assessment of the SSRIs effect on a PAM, a level of a PAM can be assessed by flow cytometry by first obtaining a sample that comprises platelets and then contacting the sample with a platelet activation agonist, such as phorbol myristate acetate (PMA), ADP (adenosine diphosphate), thrombin, collagen, and/or TRAP (thrombin receptor activating peptide), under conditions suitable for activation of platelets in the sample. The sample is in contact with the agonist preferably for a period of time effective to maximally activate the platelets. […] Then the formation of the complex in the sample is determined (detected or measured). […] The blood-ACD mixture was centrifuged at 1000 r.p.m. for 10 minutes at room temperature. […] The PRP was then centrifuged at 3000 r.p.m. for 10 minutes. […] All cells were then divided into ten plastic capped tubes. Nine portions of washed platelets were incubated with 5 μfluorescein isothiocyanate (FITC)-conjugated antibodies in the dark at +4 °C for 30 minutes, and one part remained unstained and served as a negative control. […] The instrument was calibrated daily with fluorescence beads (CaliBRITE; Becton Dickinson) and measured FITC-conjugated fluorescence intensity. All parameters were obtained using four decade logarithmic amplification. The data was collected and stored in list mode, and then analyzed using CELLQuest® (version 1.2.2) software. Procedures are described in detail in (Gurbel, P. […] Serebruany, V. […] The levels of various PAMs were assess from samples of human volunteers.

platelets = assay: Platelet aggregation in whole blood (ADP or collagen)
Method: Trisodium citrate (3.8%) and whole blood is immediately mixed in a 1:9 ratio, and then centrifuged at 1200 g for 2.5 minutes, to obtain platelet-rich plasma (PRP), which is kept at room temperature for use within 1 hour for platelet aggregation studies. Platelet count is determined in each PRP sample with a Coulter Counter ZM (Coulter Co., Hialeah, Fla.). Platelet numbers are adjusted to 3.50×10^8/ml for aggregation with homologous platelet-poor plasma. PRP and whole blood aggregation tests are performed simultaneously. Whole blood is diluted 1.1 with the 0.5 ml PBS, and then swirled gently to mix . The cuvette with the stirring bar is placed in the incubation well and allowed to warm to 37° C. for 5 minutes. Then the sample are transferred to the assay well. An electrode is placed in the sample cuvette. Platelet aggregation is stimulated with 5 μM ADP, 1 μg/ml collagen, and 0.75 mM arachidonic acid. All agonists are obtained from Chronolog Corporation (Hawertown, Pa.). […] Platelet aggregability are expressed as the percentage of light transmittance change from baseline using platelet-poor plasma as a reference at the end of recording time for plasma samples, or as a change in electrical impedance for whole blood samples. Aggregation curves are recorded for 4 minutes and analyzed according to internationally established standards using Aggrolinkg® software.

[3] = healthy volunteers, desmethylsertraline 31.1 ng/ml
[4] = healthy volunteers, desmethylsertraline 64.2 ng/ml
[5] = healthy volunteers, desmethylsertraline 143 ng/ml
[6] = post-angioplasty patient on aspirin, desmethylsertraline 31.1 ng/ml
[7] = post-angioplasty patient on aspirin, desmethylsertraline 64.2 ng/ml
[8] = post-angioplasty patient on aspirin, desmethylsertraline 143 ng/ml

Compound: N[C@H]1CC[C@@H](c2ccc(Cl)c(Cl)c2)c2ccccc21 [Desmethyl sertraline, N-desmethylsertraline]
- CD9 (mean) log fluorescence intensity (CD9): 859
- GP IIIa (peak) log fluorescence intensity (GP IIIa; healthy volunteers): 1144
- GP IIIa (mean) log fluorescence intensity (GP IIIa; post-angioplasty patient on aspirin): 1247
- P-Selectin (% +), % of cell positivity (P-selectin [1]; [3]): 1.2%
- P-Selectin (% +), % of cell positivity (P-selectin [1]; [4]): 3.3%
- P-Selectin (% +), % of cell positivity (P-selectin [1]; [5]): 0.4%
- P-Selectin (% +), % of cell positivity (P-selectin [1]; [6]): 10.68%
- P-Selectin (% +), % of cell positivity (P-selectin [1]; [7]): 8.04%
- P-Selectin (% +), % of cell positivity (P-selectin [1]; [8]): 9.92%
- P-selectin expression (FIG. 4), in words (P-selectin [1]; whole blood, post-angioplasty patient, increasing concentrations): striking decreases in expression
- P-selectin (mean) log fluorescence intensity (P-selectin [2]; [3]): 11.8
- P-selectin (peak) log fluorescence intensity (P-selectin [2]; [3]): 459
- P-selectin (mean) log fluorescence intensity (P-selectin [2]; [4]): 10.5
- P-selectin (peak) log fluorescence intensity (P-selectin [2]; [4]): 494
- P-selectin (mean) log fluorescence intensity (P-selectin [2]; [5]): 13.5
- P-selectin (peak) log fluorescence intensity (P-selectin [2]; [5]): 398
- P-selectin (mean) log fluorescence intensity (P-selectin [2]; [6]): 15
- P-selectin (peak) log fluorescence intensity (P-selectin [2]; [6]): 322
- P-selectin (mean) log fluorescence intensity (P-selectin [2]; [7]): 11
- P-selectin (peak) log fluorescence intensity (P-selectin [2]; [7]): 537
- P-selectin (mean) log fluorescence intensity (P-selectin [2]; [8]): 13.4
- P-selectin (peak) log fluorescence intensity (P-selectin [2]; [8]): 378

Compound: CN[C@H]1CC[C@@H](c2ccc(Cl)c(Cl)c2)c2ccccc21 [sertraline]
- ADP-, and collagen-induced platelet aggregation in whole blood (in vitro), in words (platelets; healthy controls and patients with coronary artery disease, including those on aspirin): Dose-dependent inhibition
- percent of platelet aggregation (FIGS. 2 and 3), in words (platelets; whole blood, healthy volunteer, induced with ADP or collagen, sertraline 18.1, 44.7 or 85.3 ng/ml): decreases with increasing amounts of sertraline
